What was measured:
[1] = Gastrointestinal ulcer formation action (gastric ulceration); details: rat, po
Protocol: Gastrointestinal ulcer formation action, which is a principal side effect of an acid anti-inflammatory drug, was investigated according to the method of Okabe et al [cf. […] The compounds of the present invention, IM, DF and acemethacin were suspended in 5% Tween-80 solution and administered orally 1 ml/100 g body weight to the rats, respectively. At 6 hrs after the administration, the state of glandstomach was observed by means of a dissecting microscope whether the ulcer having a diameter more than 1 mm was generated or not.

[2] = Rate of hydrolysis in rat plasma; type: in vitro ADME; details: in 1 ml of plasma rat (37° C., incubation for 1 hr)
Protocol: **in 1 ml of plasma rat (37° C., incubation for 1 hr)

in vivo = details: mouse, po
carrageenan edema = experiment: inhibition test of carrageenan edema employing a foot-pad edema method; type: in vivo, male Wister rats; details: for ED50: Rattus norvegicus, male Wister rats, foot-pad edema, read-out: ED50 for inhibition for carrageenan edema; for anti-inflammatory activity compared with DF: relative to DF
Excerpt: Anti-inflammatory action was investigated according to the method of Winter et al [cf. Pro. Soc. Exp. Biol. Med., 111, 544 (1962)] by the inhibition test of carrageenan edema employing a foot-pad edema method using carrageenan as an irritating agent and male Wister rats weighing 130 to 170 g.

ultraviolet erythema = experiment: inhibition action for ultraviolet erythema; type: in vivo, male Hartley guinea pigs; parameters: 2 hs after the irradiation, Average ± standard error / 3 hs after the irradiation, Average ± standard error / 5 hs after the irradiation, Average ± standard error: scale not given here; 2 hs after the irradiation, Rate for inhibition / 3 hs after the irradiation, Rate for inhibition / 5 hs after the irradiation, Rate for inhibition: unit not given here; details: for 2 hs after the irradiation, Average ± standard error / 2 hs after the irradiation, Rate for inhibition: 2 hs after irradiation; for 2 hs after the irradiation, Average ± standard error / 2 hs after the irradiation, Rate for inhibition / 3 hs after the irradiation, Average ± standard error / 3 hs after the irradiation, Rate for inhibition / 5 hs after the irradiation, Average ± standard error / 5 hs after the irradiation, Rate for inhibition: guinea pigs; for 3 hs after the irradiation, Average ± standard error / 3 hs after the irradiation, Rate for inhibition: 3 hs after irradiation; for 5 hs after the irradiation, Average ± standard error / 5 hs after the irradiation, Rate for inhibition: 5 hs after irradiation
Protocol: With respect to Compounds 1 to 3, 15 and 21 which are especially useful as an anti-inflammatory drug, IM and DF, inhibition action for ultraviolet erythema was investigated according to the method of Adames et al [cf. Nature, London, 181, 773 (1958)] using guinea pigs as follows: Male Hartley guinea pigs weighing 250 to 350 g were shaved at their sides the day before and two hrs before the ultraviolet irradiation. To the guinea pigs were administered orally Compounds 1 to 3, 15 and 21, IM and DF in amounts as described in Table 2, respectively. To the control group was administered orally only Tween-80. At 1 hr after the time of administration, the guinea pigs were irradiated at their shaved sides by ultraviolet beam for 40 seconds.
The reaction of the ultraviolet erythema was evaluated at 2 hrs, 3 hrs and 5 hrs after irradiation according to the method of Winder et al [cf. Arch. Int. Pharmacodyn., 116, 261 (1958)]. […] Compounds 1 and 2 show a duration of the pharmacological effect over 5 hrs, contrary to that IM has a duration of 2 hrs.

SMILES | metabolised at 1 h [2] | LD50 (in vivo) | ED50 (carrageenan edema) | TD50 at 6 h [1] | further results
COc1ccc2c(c1)c(CC(=O)OCC(=O)O)c(C)n2C(=O)c1ccc(Cl)cc1 [Acemethacin, acemethacin, reference compound] | 4.2% | 45 mg/kg | 8.3 mg/kg |  | TD50 at 6 h ([1]; in vivo): 17.5 mg/kg
C/C=C/C(=O)OCCOC(=O)Cc1c(C)n(C(=O)c2ccc(Cl)cc2)c2ccc(OC)cc12 [Compound 4] | 83% | 85 mg/kg | 15 mg/kg | 40 mg/kg | 
COc1ccc2c(c1)c(CC(=O)OCCOC(=O)C=C(C)C)c(C)n2C(=O)c1ccc(Cl)cc1 [Compound 5, 2-(3,3-Dimethylacryloyloxy)ethyl[1-(p-chlorobenzoyl)-5-methoxy-2-methyl-3-indolyl]acetate] | 75.3% | 62 mg/kg | 15 mg/kg | 40 mg/kg | 
CC=CC=CC(=O)OCCOC(=O)Cc1c(C)n(C(=O)c2ccc(Cl)cc2)c2ccc(OC)cc12 [Compound 6, 2-(2,4-Hexadienoyloxy)ethyl[1-(p-chlorobenzoyl)-5-methoxy-2-methyl-3-indolyl]acetate] | 69% | 85 mg/kg | 13 mg/kg | 40 mg/kg | 
COc1ccc2c(c1)c(CC(=O)OCCOC(=O)C=C(C)CCC=C(C)C)c(C)n2C(=O)c1ccc(Cl)cc1 [Compound 7, 2-(3,7-Dimethyl-2,6-octadienoyloxy)ethyl[1-(p-chlorobenzoyl)-5-methoxy-2-methyl-3-indolyl]acetate] | 60.5% | 780 mg/kg | > 20 mg/kg | > 20 mg/kg | 
COc1ccc2c(c1)c(CC(=O)OC(C)OC(C)=O)c(C)n2C(=O)c1ccc(Cl)cc1 (centres unmarked) [Compound 8, 1-(Acetoxy)ethyl[1-(p-chlorobenzoyl)-5-methoxy-2-methyl-3-indolyl]acetate] | 99.8% | 65 mg/kg | 6 mg/kg | 20 mg/kg | 
CCC(=O)OC(C)OC(=O)Cc1c(C)n(C(=O)c2ccc(Cl)cc2)c2ccc(OC)cc12 (centres unmarked) [Compound 9, 1-(Propionyloxy)ethyl[1-(p-chlorobenzoyl)-5-methoxy-2-methyl-3-indolyl]acetate] | 97.3% | 65 mg/kg | 6 mg/kg | 20 mg/kg | 
COc1ccc2c(c1)c(CC(=O)OC(C)OC(=O)C=C(C)C)c(C)n2C(=O)c1ccc(Cl)cc1 (centres unmarked) [Compound 11, 1-(3,3-Dimethylacryloyloxy)ethyl[1-(p-chlorobenzoyl)-5-methoxy-2-methyl-3-indolyl]acetate] | 85.4% | 45 mg/kg | 15 mg/kg | 10 mg/kg | 
CC=CC=CC(=O)OCOC(=O)Cc1ccccc1Nc1c(Cl)cccc1Cl [Compound 15, 2,4-Hexadienoyloxymethyl-2-(2,6-dichloroanilino)phenylacetate] | 80.5% | 500 mg/kg | 20 mg/kg |  | 2 hs after the irradiation, Average ± standard error (ultraviolet erythema; 3 mg/kg orally): 1.17 ± 0.167; 2 hs after the irradiation, Rate for inhibition (ultraviolet erythema; 3 mg/kg orally): 56.2; 3 hs after the irradiation, Average ± standard error (ultraviolet erythema; 3 mg/kg orally): 2.0 ± 0.258; 3 hs after the irradiation, Rate for inhibition (ultraviolet erythema; 3 mg/kg orally): 29.3; 5 hs after the irradiation, Average ± standard error (ultraviolet erythema; 3 mg/kg orally): 3.00 ± 0; 5 hs after the irradiation, Rate for inhibition (ultraviolet erythema; 3 mg/kg orally): 0; 2 hs after the irradiation, Average ± standard error (ultraviolet erythema; 10 mg/kg orally): 0.67 ± 0.211; 2 hs after the irradiation, Rate for inhibition (ultraviolet erythema; 10 mg/kg orally): 74.9; 3 hs after the irradiation, Average ± standard error (ultraviolet erythema; 10 mg/kg orally): 2.3 ± 0.333; 3 hs after the irradiation, Rate for inhibition (ultraviolet erythema; 10 mg/kg orally): 18.7; 5 hs after the irradiation, Average ± standard error (ultraviolet erythema; 10 mg/kg orally): 2.83 ± 0.167; 5 hs after the irradiation, Rate for inhibition (ultraviolet erythema; 10 mg/kg orally): 0; inhibition effect for ultraviolet erythema compared with IM and DF (ultraviolet erythema; relative to IM and DF): equal inhibition effect for ultraviolet erythema to that of IM and DF; anti-inflammatory activity compared with DF (carrageenan edema): almost equal anti-inflammatory activity to DF
CC(=O)OCCOC(=O)Cc1ccccc1Nc1c(Cl)cccc1Cl [Compound 16, 2-(Acetoxy)ethyl-2-(2,6-dichloroanilino)-phenylacetate] | 93.7% | 610 mg/kg | 20 mg/kg |  | anti-inflammatory activity compared with DF (carrageenan edema): almost equal anti-inflammatory activity to DF

— patent publication US4603217A, “Ester substituted alkyl-2-(2,6-dichloroanilino)phenyl acetates” (priority 1983, dated 1986)
